System: 857933-349-R-J2-PDC complex spheroid viability
Assay: Anticancer human tumor 857933-349-R-J2-PDC patient-derived colon adenocarcinoma cell line growth inhibition [POLQ]
Conditions: for IC50: curve of first compound; for viability, T/C: stronger effect = lower value
Summary of the method: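 Three-cell-type spheroids modelling solid tumor plus stroma served as the readout system; POL inhibitors were tested individually and in combination, concentration ranges set by clinical Cmax where known.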

[1] = second compound 0.0316 µM, first compound 0.0316 µM
[2] = second compound 0.0316 µM, first compound 0.1 µM
[3] = second compound 0.0316 µM, first compound 0.316 µM
[4] = second compound 0.0316 µM, first compound 1 µM
[5] = second compound 0.0316 µM, first compound 3.16 µM
[6] = second compound 0.0316 µM, first compound 10 µM
[7] = second compound 0.1 µM, first compound 0.0316 µM
[8] = second compound 0.1 µM, first compound 0.1 µM
[9] = second compound 0.1 µM, first compound 0.316 µM
[10] = second compound 0.1 µM, first compound 1 µM
[11] = second compound 0.1 µM, first compound 3.16 µM
[12] = second compound 0.1 µM, first compound 10 µM
[13] = second compound 0.316 µM, first compound 0.0316 µM
[14] = second compound 0.316 µM, first compound 0.1 µM
[15] = second compound 0.316 µM, first compound 0.316 µM
[16] = second compound 0.316 µM, first compound 1 µM
[17] = second compound 0.316 µM, first compound 3.16 µM
[18] = second compound 0.316 µM, first compound 10 µM
[19] = second compound 1 µM, first compound 0.0316 µM
[20] = second compound 1 µM, first compound 0.1 µM
[21] = second compound 1 µM, first compound 0.316 µM
[22] = second compound 1 µM, first compound 1 µM
[23] = second compound 1 µM, first compound 3.16 µM
[24] = second compound 1 µM, first compound 10 µM
[25] = second compound 3.16 µM, first compound 0.0316 µM
[26] = second compound 3.16 µM, first compound 0.1 µM
[27] = second compound 3.16 µM, first compound 0.316 µM
[28] = second compound 3.16 µM, first compound 1 µM
[29] = second compound 3.16 µM, first compound 3.16 µM
[30] = second compound 3.16 µM, first compound 10 µM
[31] = second compound 10 µM, first compound 0.0316 µM
[32] = second compound 10 µM, first compound 0.1 µM
[33] = second compound 10 µM, first compound 0.316 µM
[34] = second compound 10 µM, first compound 1 µM
[35] = second compound 10 µM, first compound 3.16 µM
[36] = second compound 10 µM, first compound 10 µM
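Further: spheroids exposed to compounds for seven days before readout.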

CC(=O)O[C@H]1C(=O)[C@@]2(C)[C@H]([C@H](OC(=O)c3ccccc3)[C@]3(O)C[C@H](OC(=O)[C@H](O)[C@@H](NC(=O)c4ccccc4)c4ccccc4)C(C)=C1C3(C)C)[C@]1(OC(C)=O)CO[C@@H]1C[C@@H]2O + COC1C(OC(N)=O)C(O)C(Oc2ccc3c(O)c(NC(=O)c4ccc(O)c(CC=C(C)C)c4)c(=O)oc3c2C)OC1(C)C
IC50 (second compound 0.0316 µM): < 9.49 nM | IC50 (second compound 0.1 µM): 14.6 nM | IC50 (second compound 0.316 µM): 13.2 nM | IC50 (second compound 1 µM): 12.2 nM | IC50 (second compound 3.16 µM): 9.76 nM | IC50 (second compound 10 µM): 11.3 nM | viability, T/C (second compound 0.0316 µM, first compound 0.00949 µM): 48.7% | viability, T/C (second compound 0.0316 µM, first compound 0.03 µM): 25% | viability, T/C (second compound 0.0316 µM, first compound 0.0949 µM): 19.1% | viability, T/C (second compound 0.0316 µM, first compound 0.3 µM): 17.6% | viability, T/C (second compound 0.0316 µM, first compound 0.949 µM): 15.8% | viability, T/C (second compound 0.0316 µM, first compound 3 µM): 20.8% | viability, T/C (second compound 0.1 µM, first compound 0.00949 µM): 61% | viability, T/C (second compound 0.1 µM, first compound 0.03 µM): 31.7% | viability, T/C (second compound 0.1 µM, first compound 0.0949 µM): 15.2% | viability, T/C (second compound 0.1 µM, first compound 0.3 µM): 15.4% | viability, T/C (second compound 0.1 µM, first compound 0.949 µM): 15.1% | viability, T/C (second compound 0.1 µM, first compound 3 µM): 16.5% | viability, T/C (second compound 0.316 µM, first compound 0.00949 µM): 57.8% | viability, T/C (second compound 0.316 µM, first compound 0.03 µM): 30.2% | viability, T/C (second compound 0.316 µM, first compound 0.0949 µM): 15.7% | viability, T/C (second compound 0.316 µM, first compound 0.3 µM): 19.7% | viability, T/C (second compound 0.316 µM, first compound 0.949 µM): 13.8% | viability, T/C (second compound 0.316 µM, first compound 3 µM): 25.4% | viability, T/C (second compound 1 µM, first compound 0.00949 µM): 58.7% | viability, T/C (second compound 1 µM, first compound 0.03 µM): 19.7% | viability, T/C (second compound 1 µM, first compound 0.0949 µM): 12.8% | viability, T/C (second compound 1 µM, first compound 0.3 µM): 20.5% | viability, T/C (second compound 1 µM, first compound 0.949 µM): 16.1% | viability, T/C (second compound 1 µM, first compound 3 µM): 20.3% | viability, T/C (second compound 3.16 µM, first compound 0.00949 µM): 50.7% | viability, T/C (second compound 3.16 µM, first compound 0.03 µM): 21.3% | viability, T/C (second compound 3.16 µM, first compound 0.0949 µM): 15.2% | viability, T/C (second compound 3.16 µM, first compound 0.3 µM): 16.4% | viability, T/C (second compound 3.16 µM, first compound 0.949 µM): 16.4% | viability, T/C (second compound 3.16 µM, first compound 3 µM): 19.3% | viability, T/C (second compound 10 µM, first compound 0.00949 µM): 54.5% | viability, T/C (second compound 10 µM, first compound 0.03 µM): 25.5% | viability, T/C (second compound 10 µM, first compound 0.0949 µM): 18.3% | viability, T/C (second compound 10 µM, first compound 0.3 µM): 17.4% | viability, T/C (second compound 10 µM, first compound 0.949 µM): 15.7% | viability, T/C (second compound 10 µM, first compound 3 µM): 20.7%

COc1cc(C2c3cc4c(cc3C(OC3OC5COC(C)OC5C(O)C3O)C3COC(=O)C23)OCO4)cc(OC)c1O (stereo not drawn) + COC1C(OC(N)=O)C(O)C(Oc2ccc3c(O)c(NC(=O)c4ccc(O)c(CC=C(C)C)c4)c(=O)oc3c2C)OC1(C)C
IC50 (second compound 0.0316 µM): 352 nM | IC50 (second compound 0.1 µM): 399 nM | IC50 (second compound 0.316 µM): 488 nM | IC50 (second compound 1 µM): 453 nM | IC50 (second compound 3.16 µM): 358 nM | IC50 (second compound 10 µM): 386 nM | viability, T/C [1]: 80.7% | viability, T/C [2]: 88.3% | viability, T/C [3]: 51.3% | viability, T/C [4]: 46.2% | viability, T/C [5]: 36.1% | viability, T/C [6]: 28.7% | viability, T/C [7]: 71.1% | viability, T/C [8]: 84.7% | viability, T/C [9]: 53.5% | viability, T/C [10]: 42.3% | viability, T/C [11]: 35.5% | viability, T/C [12]: 30.4% | viability, T/C [13]: 74.1% | viability, T/C [14]: 79.3% | viability, T/C [15]: 54.6% | viability, T/C [16]: 41% | viability, T/C [17]: 34.7% | viability, T/C [18]: 29.9% | viability, T/C [19]: 81.9% | viability, T/C [20]: 71.3% | viability, T/C [21]: 54.6% | viability, T/C [22]: 39.6% | viability, T/C [23]: 34.2% | viability, T/C [24]: 29.9% | viability, T/C [25]: 88.2% | viability, T/C [26]: 99% | viability, T/C [27]: 52.1% | viability, T/C [28]: 37.5% | viability, T/C [29]: 30.3% | viability, T/C [30]: 30.1% | viability, T/C [31]: 94.5% | viability, T/C [32]: 65.7% | viability, T/C [33]: 54.6% | viability, T/C [34]: 39.8% | viability, T/C [35]: 37.6% | viability, T/C [36]: 32.1%

COc1cccc2c1C(=O)c1c(O)c3c(c(O)c1C2=O)CC(O)(C(=O)CO)CC3OC1CC(N)C(O)C(C)O1 (stereo not drawn) + COC1C(OC(N)=O)C(O)C(Oc2ccc3c(O)c(NC(=O)c4ccc(O)c(CC=C(C)C)c4)c(=O)oc3c2C)OC1(C)C
IC50 (second compound 0.0316 µM): 334 nM | IC50 (second compound 0.1 µM): 216 nM | IC50 (second compound 0.316 µM): 326 nM | IC50 (second compound 1 µM): 226 nM | IC50 (second compound 3.16 µM): 320 nM | IC50 (second compound 10 µM): 263 nM | viability, T/C [1]: 73.1% | viability, T/C [2]: 80.2% | viability, T/C [3]: 51.4% | viability, T/C [4]: 8.39% | viability, T/C [5]: 0.35% | viability, T/C [6]: 0.47% | viability, T/C [7]: 64.2% | viability, T/C [8]: 70.5% | viability, T/C [9]: 41.3% | viability, T/C [10]: 5.48% | viability, T/C [11]: 0.39% | viability, T/C [12]: 0.29% | viability, T/C [13]: 79.8% | viability, T/C [14]: 76.2% | viability, T/C [15]: 51.3% | viability, T/C [16]: 8.79% | viability, T/C [17]: 0.37% | viability, T/C [18]: 0.44% | viability, T/C [19]: 70.9% | viability, T/C [20]: 58.8% | viability, T/C [21]: 45.6% | viability, T/C [22]: 6.1% | viability, T/C [23]: 0.31% | viability, T/C [24]: 0.43% | viability, T/C [25]: 68.3% | viability, T/C [26]: 68.2% | viability, T/C [27]: 50.3% | viability, T/C [28]: 9.54% | viability, T/C [29]: 0.51% | viability, T/C [30]: 0.49% | viability, T/C [31]: 75.1% | viability, T/C [32]: 80.3% | viability, T/C [33]: 43.5% | viability, T/C [34]: 10% | viability, T/C [35]: 0.39% | viability, T/C [36]: 0.49%

O=c1[nH]cc(F)c(=O)[nH]1 + COC1C(OC(N)=O)C(O)C(Oc2ccc3c(O)c(NC(=O)c4ccc(O)c(CC=C(C)C)c4)c(=O)oc3c2C)OC1(C)C
IC50 (second compound 0.0316 µM): 1960 nM | IC50 (second compound 0.1 µM): 1640 nM | IC50 (second compound 0.316 µM): 2270 nM | IC50 (second compound 1 µM): 2220 nM | IC50 (second compound 3.16 µM): 2760 nM | IC50 (second compound 10 µM): 2560 nM | viability, T/C [1]: 81.7% | viability, T/C [2]: 110% | viability, T/C [3]: 125% | viability, T/C [4]: 71.1% | viability, T/C [5]: 45.5% | viability, T/C [6]: 24.6% | viability, T/C [7]: 87.3% | viability, T/C [8]: 91.5% | viability, T/C [9]: 92.2% | viability, T/C [10]: 58.1% | viability, T/C [11]: 44.7% | viability, T/C [12]: 30.3% | viability, T/C [13]: 99.3% | viability, T/C [14]: 87.2% | viability, T/C [15]: 88.8% | viability, T/C [16]: 70.9% | viability, T/C [17]: 41% | viability, T/C [18]: 28.4% | viability, T/C [19]: 109% | viability, T/C [20]: 92.1% | viability, T/C [21]: 97.3% | viability, T/C [22]: 63.8% | viability, T/C [23]: 44.5% | viability, T/C [24]: 30% | viability, T/C [25]: 79.7% | viability, T/C [26]: 86.3% | viability, T/C [27]: 82.3% | viability, T/C [28]: 85.3% | viability, T/C [29]: 45.5% | viability, T/C [30]: 29.3% | viability, T/C [31]: 108% | viability, T/C [32]: 74.4% | viability, T/C [33]: 76.3% | viability, T/C [34]: 76.2% | viability, T/C [35]: 42.2% | viability, T/C [36]: 29.3%
